Patent publication US7728012B2, “Carboxamide compounds and their use as calpain inhibitors” (Abbott GmbH & Co. KG, priority 2006, dated 2010)

What was measured:
Format in all cases: biochemical
[1] = target: T1, calpain-I isolated from human erythrocytes (Homo sapiens, UniProt P07384); test: Calpain I kinetic fluorescence enzyme inhibition assay; details: apparent Ki from IC50 by Cheng-Prussoff; average of 2 to 4 dose-effect plots
T1 construct: calpain-I—isolated from human erythrocytes; purchased Calbiochem 208713; host or cells: human erythrocytes (tissue isolate)
T1 sequence (P07384 1-714): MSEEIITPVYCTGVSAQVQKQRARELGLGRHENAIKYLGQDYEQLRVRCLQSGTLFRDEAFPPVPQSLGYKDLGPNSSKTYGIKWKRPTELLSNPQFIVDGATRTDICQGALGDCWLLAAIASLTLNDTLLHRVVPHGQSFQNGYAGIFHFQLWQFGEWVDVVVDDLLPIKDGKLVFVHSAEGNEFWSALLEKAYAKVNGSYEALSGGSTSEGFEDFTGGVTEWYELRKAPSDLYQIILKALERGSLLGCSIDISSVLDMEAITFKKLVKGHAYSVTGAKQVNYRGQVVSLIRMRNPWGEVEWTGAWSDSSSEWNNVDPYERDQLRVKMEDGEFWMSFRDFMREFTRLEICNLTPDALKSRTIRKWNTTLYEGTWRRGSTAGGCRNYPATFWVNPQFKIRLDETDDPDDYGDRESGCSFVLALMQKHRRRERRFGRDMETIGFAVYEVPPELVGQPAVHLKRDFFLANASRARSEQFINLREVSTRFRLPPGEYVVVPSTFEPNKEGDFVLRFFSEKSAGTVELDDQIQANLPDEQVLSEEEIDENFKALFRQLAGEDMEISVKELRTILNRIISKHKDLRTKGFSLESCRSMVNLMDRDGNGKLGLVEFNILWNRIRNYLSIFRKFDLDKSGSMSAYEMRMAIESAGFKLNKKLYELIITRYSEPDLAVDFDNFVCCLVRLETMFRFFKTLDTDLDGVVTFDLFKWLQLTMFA
T1 sequence (P04632 1-268 partner): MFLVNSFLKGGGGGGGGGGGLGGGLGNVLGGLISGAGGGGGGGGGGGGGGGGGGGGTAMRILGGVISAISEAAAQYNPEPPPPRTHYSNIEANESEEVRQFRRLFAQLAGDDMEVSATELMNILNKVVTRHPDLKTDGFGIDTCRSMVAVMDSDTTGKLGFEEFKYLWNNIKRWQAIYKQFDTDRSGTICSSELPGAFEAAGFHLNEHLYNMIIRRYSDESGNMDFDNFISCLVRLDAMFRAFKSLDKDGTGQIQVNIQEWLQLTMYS

[2] = target: T2, cathepsin B isolated from human liver (Homo sapiens, UniProt P07858); test: Cathepsin B kinetic fluorescence enzyme inhibition assay; details: selectivity ratio versus calpain I
T2 construct: cathepsin B—isolated from human liver; purchased Calbiochem 219362; host or cells: human liver (tissue isolate)
How it was run: (§1)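 cat B 0.25 nM + Z-Phe-Arg-AMC 100 μM; cat L 1 nM + Z-Phe-Arg-AMC 2 μM; cat S 0.5 nM (E. coli-expressed) + Z-Val-Val-Arg-AMC 20 μM. 50 mM MES pH 6.0, 2.5 mM L-Cys, RT. Ex 390/em 460, kinetic; Ki app = Cheng-Prusoff from IC50, mean of 2–4 curves.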

[3] = target: T3, cathepsin K activated from recombinant human procathepsin K (Homo sapiens, UniProt P43235); test: Cathepsin K kinetic fluorescence enzyme inhibition assay; details: selectivity ratio versus calpain I
T3 construct: purchased Calbiochem 342001; host or cells: E. coli
T3 sequence (P43235 115-329): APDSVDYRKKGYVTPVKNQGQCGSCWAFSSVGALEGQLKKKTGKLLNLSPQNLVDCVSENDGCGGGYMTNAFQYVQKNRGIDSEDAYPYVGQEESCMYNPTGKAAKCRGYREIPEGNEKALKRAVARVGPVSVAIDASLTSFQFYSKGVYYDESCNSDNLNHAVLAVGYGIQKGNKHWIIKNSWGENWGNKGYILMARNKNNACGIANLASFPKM

[4] = target: T4, cathepsin L isolated from human liver (Homo sapiens, UniProt P07711); test: Cathepsin L kinetic fluorescence enzyme inhibition assay; details: selectivity ratio versus calpain I
T4 construct: cathepsin L—isolated from human liver; purchased Calbiochem 219402; host or cells: human liver (tissue isolate)
T4 sequence (P07711 114-333): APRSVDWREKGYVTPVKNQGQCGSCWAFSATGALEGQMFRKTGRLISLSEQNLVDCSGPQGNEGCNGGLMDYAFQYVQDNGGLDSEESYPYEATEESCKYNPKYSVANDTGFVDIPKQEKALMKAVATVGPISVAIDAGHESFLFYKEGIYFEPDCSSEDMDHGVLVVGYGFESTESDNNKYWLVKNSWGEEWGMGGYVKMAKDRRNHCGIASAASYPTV
How it was run: as §1

[5] = target: T5, recombinant human cathepsin S (Homo sapiens, UniProt P25774); test: Cathepsin S kinetic fluorescence enzyme inhibition assay; details: selectivity ratio versus calpain I
T5 construct: purchased Calbiochem 219343; host or cells: E. coli
T5 sequence (P25774 115-331): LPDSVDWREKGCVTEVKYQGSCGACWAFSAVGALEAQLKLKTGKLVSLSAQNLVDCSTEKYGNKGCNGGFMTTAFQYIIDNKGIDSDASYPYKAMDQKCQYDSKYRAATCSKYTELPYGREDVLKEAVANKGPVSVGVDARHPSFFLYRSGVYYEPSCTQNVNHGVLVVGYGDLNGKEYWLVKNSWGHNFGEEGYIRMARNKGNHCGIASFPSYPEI
How it was run: as §1

Molecule: NC(=O)C(=O)C(Cc1ccccc1)NC(=O)c1cccnc1-n1cc(Cl)c(-c2ccc(F)cc2)n1 (stereo not drawn) [Example 184, N-[3-Amino-2,3-dioxo-1-(phenylmethyl)propyl]-2-[4-chloro-3-(4-fluorophenyl)-1H-pyrazol-1-yl]pyridine-3-carboxamide]
- Ki [1]: 0.04 to 0.1 µM
- Sel cat. B (Ki(cathepsin B)/Ki(calpain) ratio) [2]: + (10≦Ki(cathepsin B)/Ki(calpain)<30)
- Sel cat. K (Ki(cathepsin K)/Ki(calpain) ratio) [3]: + (10≦Ki(cathepsin K)/Ki(calpain)<30)
- Sel cat. L (Ki(cathepsin L)/Ki(calpain) ratio) [4]: ++ (Ki(cathepsin L)/Ki(calpain) ratio of ≧50)
- Sel cat. S (Ki(cathepsin S)/Ki(calpain) ratio) [5]: ++ (Ki(cathepsin S)/Ki(calpain) ratio of ≧100)

Molecule: NC(=O)C(=O)C(Cc1ccccc1)NC(=O)c1cccnc1-n1ccc(C23CC4CC(CC(C4)C2)C3)n1 (stereo not drawn) [Example 193, N-[3-Amino-2,3-dioxo-1-(phenylmethyl)propyl]-2-(3-tricyclo[3.3.1.1^3,7]dec-1-yl-1H-pyrazol-1-yl)pyridine-3-carboxamide]
- Ki [1]: ≤ 0.04 µM
- Sel cat. B (Ki(cathepsin B)/Ki(calpain) ratio) [2]: ++ (Ki(cathepsin B)/Ki(calpain) ratio of ≧30)
- Sel cat. K (Ki(cathepsin K)/Ki(calpain) ratio) [3]: ++ (Ki(cathepsin K)/Ki(calpain) ratio of ≧30)
- Sel cat. L (Ki(cathepsin L)/Ki(calpain) ratio) [4]: ++ (Ki(cathepsin L)/Ki(calpain) ratio of ≧50)
- Sel cat. S (Ki(cathepsin S)/Ki(calpain) ratio) [5]: ++ (Ki(cathepsin S)/Ki(calpain) ratio of ≧100)

Molecule: N-[3-Amino-2,3-dioxo-1-(phenylmethyl)propyl]-2-[3-(3,5-dichlorophenyl)-1H-pyrazol-1-yl]pyridine-3-carboxamide [Example 89]
- Ki [1]: 0.04 to 0.1 µM
- Sel cat. B (Ki(cathepsin B)/Ki(calpain) ratio) [2]: + (10≦Ki(cathepsin B)/Ki(calpain)<30)
- Sel cat. K (Ki(cathepsin K)/Ki(calpain) ratio) [3]: + (10≦Ki(cathepsin K)/Ki(calpain)<30)
- Sel cat. L (Ki(cathepsin L)/Ki(calpain) ratio) [4]: ++ (Ki(cathepsin L)/Ki(calpain) ratio of ≧50)
- Sel cat. S (Ki(cathepsin S)/Ki(calpain) ratio) [5]: ++ (Ki(cathepsin S)/Ki(calpain) ratio of ≧100)
